In US6015820A, “4-Aryl-thio-pyridin-2(1H)-ones, medicines containing them and their uses in the treatment of illnesses linked to HIV” (priority 1995, dated 2000):
Read-outs that look alike come from different tables or passages of the source.

What was measured:
[1] = test system: HIV-1 LAI; test: anti-HIV-1 activity: replication of HIV-1 LAI on CEM-SS cells; assay type: cell-based
In short: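 CEM-SS cells were infected with 100 TCID50 virus for 30 min, washed, then cultured 5 days with test compound at varied concentrations. Virus production was measured as reverse transcriptase activity in culture supernatant, and IC50 was derived by median-effect dose-effect analysis.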

[2] = test system: HIV-1 IIIB; test: anti-HIV-1 activity, HIV-1 IIIB/PBMC; assay type: cell-based; conditions: Human immunodeficiency virus 1, Table 4
Method: (§1) The virus production was measured by quantifying the activity of the inverse transcriptase associated with viral particles released into the culture supernatant. In short, cells were infected with 100 TCID50 for 30 minutes; after adsorption of the virus, unbound particles were removed by two washings and the cells were cultivated in the presence of different concentrations of the compounds tested for 5 days before determining the viral production. The concentration inhibiting 50% of the viral multiplication (IC50) came from the computer plot of the median effect of the dose effect results (Chou et al. Elsevier Science Publishers, Cambridge U.K. (1985), 19-28).
(§2) Thirty two compounds according to the invention were studied for their anti-HIV-1 biological activity. […] This compound was then tested with other colonies and other cell lines (Table 4).

[3] = test system: HIV-2 D194; test: anti-HIV-2 activity, HIV-2 D194/PBMC; assay type: cell-based; conditions: Human immunodeficiency virus 2, Table 4
Method: as §1, §2

[4] = molecular target: IT of HIV-2 (Human immunodeficiency virus type 2 (ISOLATE ROD), UniProt P04584); test: inhibition of the inverse transcriptase of HIV-2; assay type: biochemical; conditions: at concentrations at which the IT of HIV-1 was well inhibited (FIG. 9)
Chain of IT of HIV-2 (P04584 613-1171): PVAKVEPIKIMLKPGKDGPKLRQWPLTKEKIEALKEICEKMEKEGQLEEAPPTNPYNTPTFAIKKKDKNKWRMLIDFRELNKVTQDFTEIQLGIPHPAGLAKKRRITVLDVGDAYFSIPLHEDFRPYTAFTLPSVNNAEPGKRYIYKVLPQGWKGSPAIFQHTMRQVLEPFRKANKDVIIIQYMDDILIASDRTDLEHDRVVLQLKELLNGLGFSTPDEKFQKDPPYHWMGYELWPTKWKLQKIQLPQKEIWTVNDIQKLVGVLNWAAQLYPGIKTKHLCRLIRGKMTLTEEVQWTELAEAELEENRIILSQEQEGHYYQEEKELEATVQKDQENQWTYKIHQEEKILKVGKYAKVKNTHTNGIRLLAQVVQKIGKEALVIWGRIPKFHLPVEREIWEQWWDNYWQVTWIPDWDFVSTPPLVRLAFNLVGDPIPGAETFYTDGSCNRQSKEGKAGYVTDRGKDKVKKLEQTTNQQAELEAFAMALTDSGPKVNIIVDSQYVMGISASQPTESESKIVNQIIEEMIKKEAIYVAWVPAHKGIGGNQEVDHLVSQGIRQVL
Method: The system for the expression of the IT of HIV-2 in E.coli (B. Muller et al. (1991 J. Biol. Chem. 266, 14708-14713) was provided by Dr. R. Goody. The IT of the HIV-2 was purified in the same way as the IT of the HIV-1.
(§3) Incubation was carried out at 37° C. for 10 minutes in the presence of various matrix-primers.
(§4) a) Poly C-oligo dG: the reaction mixture contained a final volume of 0.05 ml, Tris-HCl 50 mM pH 8.0, MgCl2 5 mM, dithiothreitol 4 mM, 0.48 A260 /ml of poly C-oligo dG (5:1), 1.0 μCi of [^3 H]dGTP (28 Ci/mmole), dGTP 2 μM, KCl 80 mM, 1 μg of bovine serum albumin and IT 20-50 nM.
(§5) b) Poly A-oligo dT: the same conditions as in a), except that 0.48 A260 /ml of poly A-oligo dT (5:1), 0.5 μCi of [^3 H]dTTP (46 Ci/mmole), dTTP 20 μM were used.
(§6) The reactions were stopped by adding in the cold 1 ml of 10% trichloroacetic acid plus sodium pyrophosphate 0.1 M. The precipitates were filtered through nitrocellulose membranes, washed with 2% trichloroacetic acid, dried and counted in a PPO/POPOP/toluene scintillation mixture.
All the compounds were dissolved in dimethyl#sulphoxide (DMSO). The test samples were prepared in the presence of the same final concentration of DMSO. IC50 is the concentration required to inhibit the activity of the IT of the recombinant HIV-1 by 50%.

[5] = test system: HIV-1 4200 type E (primary isolate); test: anti-HIV-1 activity, HIV-1 4200 type E (primary isolate)/PBMC; assay type: cell-based; conditions: Human immunodeficiency virus 1, Table 4
Method: as §1, §2

[6] = cytotoxicity on MT4 cells; assay type: cell-based; conditions: human, Table 4, line HIV-1 IIIB/MT4
Method: In parallel experiments, the cytotoxicity of the molecules was measured on non-infected cells, after an incubation of 5 days in the presence of these molecules, by using a […] titration (MTT test) based on the ability of the mitochondrial dehydrogenases of the living cells to reduce 3-(4,5-dimethylthiazol-2-yl)-2,5-diphenyltetrazolium bromide in formazan (Mosmann et al. J. Immunol. Methods ([…]), 65, 55-63). The concentration cytotoxic at 50% (CC50) is the concentration at which the DO540 has been reduced to half and is calculated by using the program mentioned above.

[7] = molecular target: inverse transcriptase of HIV-1 (HIV-1 M:B_ARV2/SF2, UniProt P03369); test: enzymatic kinetic analysis of IT inhibition (Lineweaver-Burk); assay type: biochemical
Method: FIG. 12 is a double-reciprocal (Lineweaver-Burk) representation of the inhibition of the inverse transcriptase of HIV-1 by compound 7c with the poly C-oligo dG as a matrix-primer couple and dGPT as substrate.
FIG. 13 is a double-reciprocal representation, similar to […], in which the poly A-oligo dT is used as a matrix-primer couple and dTTP as substrate.
as §3, §4, §5, §6

[8] = test system: CEM-SS cells; test: cytotoxicity on non-infected cells (MTT test); assay type: cell-based; conditions: Table 3; non-infected cells, MTT, 5 days
In short: (§7)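 Non-infected cells incubated 5 days with compounds; viability by MTT reduction to formazan via mitochondrial dehydrogenases, read at OD540. CC50 is the concentration halving OD540.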

[9] = cytotoxicity on non-infected cells (MTT test); assay type: cell-based; conditions: human
In short: as §7

[10] = test system: HIV-1 resistant to Nevirapine (N119); test: microbe, parasite or virus in culture; assay type: cell-based; conditions: for IC50: Human immunodeficiency virus 1, CEM-SS
Method: The effects of the compounds were evaluated on the replication of HIV-1 (see Table 2) on CEM-SS cells (cell lines of the lymphocytic lineage) strongly infected with HIV-1 LAI as described by Moog et al. (Antiviral Research (1994), 24, 275-288). The CEM-SS and the HIV-1 resistant to Nevirapine (N119) carrying a point mutation at codon 181 of the IT, were supplied respectively by P. NARA and D. RICHMAN through the intermediary of the AIDS Research and Reference Reagent Program, Division of AIDS, NIAID, NIH (USA) (Catalogue references : No. 776 and No. 1392).
as §1

[11] = molecular target: T1, endogenous IT of isolated virion (Human immunodeficiency virus type 1 group M subtype B, UniProt P03367); test: inhibition of the endogenous IT on the isolated virion; assay type: biochemical; conditions: for IT activity in cpm: Table 7, 10 μM
T1 construct: endogenous in cells; host or cells: isolated HIV-1 virions
Method: After having been incubated with the various inhibitors, the viral supernatants (200 μl) were deposited in the filtering part of a VectaSpin tube (WHATMAN) fitted with an ANAPORE membrane of porosity 0.02 μm. For 10 minutes they were subjected to centrifugation, the acceleration of which reached 6000 g at the filtering membrane. The viral residuums thereby obtained (10-15 μl ) were washed 3 times under the same conditions with 500 μl of RPMI then restored to their initial volumes with RPMI containing 10% of CFS.

Q: Which IC50 ([1]; Human immunodeficiency virus 1, 120 h, Table 2, HIV-1 LAI, CEM-SS cells, 5 days, read-out: IC50, anti-HIV-1 activity) does the source give for `CCc1c(C)[nH]c(=O)c([N+](=O)[O-])c1Sc1cc(C)cc(C)c1` [Compound 7c, 5-ethyl-6-methyl-3-nitro-4-(3', 5'-dimethylphenyl)thio-pyridin-2(1H)-one] here?
A: 6 nM

Q: What about the IC50 ([1]; Human immunodeficiency virus 1, CEM-SS, Table 4, HIV-1 (LA1)/CEMSS, read-out: IC50) of the same compound?
A: < 0.4 nM

Q: And the “SI (selectivity index)” value ([1]; Table 2, HIV-1 LAI, CEM-SS cells)?
A: > 1666

Q: What about the IC50 [2] of the same compound?
A: < 0.03 nM

Q: What about the IC50 [3] of the same compound?
A: > 10000 nM

Q: What about the “effect on activity of the IT of HIV-2” value [4] of the same compound?
A: not affected

Q: And the IC50 [5]?
A: < 0.1 nM

Q: And the CC50 at 120 h [6]?
A: > 10000 nM

Q: And the type of inhibition ([7]; as regards dGTP substrate, poly C-oligo dG matrix-primer (FIG. 12))?
A: non-competitive

Q: And the type of inhibition ([7]; poly A-oligo dT matrix-primer, dTTP substrate (FIG. 13))?
A: competitive

Q: And the CC50 [8]?
A: > 10000 nM

Q: And the CC50 at 120 h ([9]; cem-ss cells, Table 4, line HIV-1 (LA1)/CEMSS)?
A: > 10000 nM

Q: And the CC50 at 120 h ([9]; Table 2, non-infected CEM-SS cells, MTT, 5 days)?
A: > 10000 nM

Q: And the IC50 [10]?
A: 23 nM

Q: What about the IC50 ([10]; read-out: IC50, strain resistant to Nevirapine) of the same compound?
A: 260 nM

Q: What about the “SI (selectivity index)” value ([10]; Table 3, strain resistant to Nevirapine) of the same compound?
A: > 38

Q: What about the “IT activity in cpm” value ([11]; first (unheaded) value column, isolated virion control 813) of the same compound?
A: 32 cpm

Q: And the “IT activity in cpm” value ([11]; second (unheaded) value column, isolated virion control 809)?
A: 852 cpm

Q: And the “penetration of envelope and capsid and blocking of IT” value ([11]; isolated virions incubated 3 hours)?
A: appeared to penetrate the envelope and the viral capsid to fix itself onto the IT and to block its activity
